In US20240262822A1, “WDR5 INHIBITORS AND MODULATORS” (Vanderbilt University, priority 2021, published 2024) one finds Ki and GI50 data, which are given here for eleven compounds.

Assay [1] addresses T1, WDR5 (Homo sapiens, UniProt P61964).
T1 construct: WDR5-His Tag (A23, residues 24-334) is expressed and purified in our lab; made in house
Kind of assay: Time Resolved-Fluorescence Energy Transfer (TR-FRET) competition assay, displacement of 10mer-Thr-FAM probe from His-tagged WDR5. It is filed as binding. The following applies: WDR5-His tag 2 nM, 10mer-Thr-FAM 150 nM, 60 minutes at room temperature; read-out: Ki for Exemplified Compounds for Inhibition of WDR5 by TR-FRET assay. A digest of the protocol: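 Competitive TR-FRET using 2 nM His-tagged WDR5 (residues 24-334), 1 nM Tb-anti-His antibody and 150 nM 10mer-Thr-FAM probe; compounds in a 10-point, 5-fold series from 5 μM, ≤1% DMSO. Incubated 60 min at room temperature in PBS with 300 mM NaCl, 0.5 mM TCEP, 0.1% CHAPS, pH 7.2; 520/495 nm emission gave IC50, converted to Ki by the Wang equation.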

In assay [2] the test system is MV4:11 human cancer cell lines. Kind of assay: Cellular viability / anti-proliferative activity, CellTiter-Glo, 5 day protocol. In kind it is cell-based. The note with it: Homo sapiens, MV4-11, 120 h, MV4:11 cells, 5 day incubation, read-out: GI50 for representative compounds on cellular proliferation of MV4:11 human cancer cell lines. A digest of the protocol:
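MV-4-11 cells in IMDM/10% FBS, 200 cells per well, exposed to 22-point 2-fold dilutions from 30 μM top (0.3% DMSO) for 5 days. Viability by CellTiter-Glo luminescence; GI50 from sigmoidal dose-response fit, mean of at least two replicates.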

On to `COc1cc2nc(N3CCOCC3)nc(N3CCc4c(cc(Cn5ccnc5)cc4-c4cn(C)nc4C(F)(F)F)C3=O)c2cc1OC` [Example 56, 7-((1H-Imidazol-1-yl)methyl)-2-(6,7-dimethoxy-2-morpholinoquinazolin-4-yl)-5-(1-methyl-3-(trifluoromethyl)-1H-pyrazol-4-yl)-3,4-dihydroisoquinolin-1(2H)-one], for which, in assay [1], the inhibition constant Ki (as a rule, the equilibrium dissociation constant of an inhibitor or competing ligand from its target) was under 0.02 nM. Moreover, the GI50 in assay [2] is under 20 nM.
In the case of `CNc1nc(N2CCc3c(cc(Cn4ccnc4)cc3-c3cn(C)nc3C(F)(F)F)C2=O)c2cc(OC)c(OC)cc2n1` [Example 57, 7-((1H-Imidazol-1-yl)methyl)-2-(6,7-dimethoxy-2-(methylamino)quinazolin-4-yl)-5-(1-methyl-3-(trifluoromethyl)-1H-pyrazol-4-yl)-3,4-dihydroisoquinolin-1(2H)-one], the Ki in assay [1] was 0.023 nM. The GI50 in assay [2] worked out at 24 nM.
With `CCn1nc(C)cc1-c1cc(Cn2ccnc2)cc2c1CCN(c1nc(C)nc3cc(OC)c(OC)cc13)C2=O` [Example 58, 7-((1H-Imidazol-1-yl)methyl)-2-(6,7-dimethoxy-2-methylquinazolin-4-yl)-5-(1-ethyl-3-methyl-1H-pyrazol-5-yl)-3,4-dihydroisoquinolin-1(2H)-one], the inhibitory constant (Ki) in assay [1] was 0.03 nM. Moreover, the GI50 in assay [2] worked out at 195 nM.
`COc1cc2nc(C)nc(N3CCc4c(cc(Cn5ccnc5)cc4-c4cc(C)nn4C)C3=O)c2cc1OC` [Example 59, 7-((1H-Imidazol-1-yl)methyl)-2-(6,7-dimethoxy-2-methylquinazolin-4-yl)-5-(1,3-dimethyl-1H-pyrazol-5-yl)-3,4-dihydroisoquinolin-1(2H)-one]: in assay [1], the inhibitory constant (Ki) is under 0.02 nM. The GI50 in assay [2] turned out to be 90 nM.
In the same order, the values of `COc1cc2nc(C)nc(N3CCc4c(cc(Cn5ccnc5)cc4-c4cc(C(F)(F)F)nn4C)C3=O)c2cc1OC` [Example 61, 7-((1H-Imidazol-1-yl)methyl)-2-(6,7-dimethoxy-2-methylquinazolin-4-yl)-5-(1-methyl-3-(trifluoromethyl)-1H-pyrazol-5-yl)-3,4-dihydroisoquinolin-1(2H)-one] are 0.031 nM and 128 nM.
Regarding `CCN(C)c1nc(N2CCc3c(cc(Cn4ccnc4)cc3-c3cn(C)nc3C(F)(F)F)C2=O)c2cc(OC)c(OC)cc2n1` [Example 62, 7-((1H-Imidazol-1-yl)methyl)-2-(2-(ethyl(methyl)amino)-6,7-dimethoxyquinazolin-4-yl)-5-(1-methyl-3-(trifluoromethyl)-1H-pyrazol-4-yl)-3,4-dihydroisoquinolin-1(2H)-one], the Ki in assay [1] was under 0.02 nM. The GI50 in assay [2] amounted to 29 nM.
As for `CCc1nc(N2CCc3c(cc(Cn4ccnc4)cc3-c3cn(C)nc3C(F)(F)F)C2=O)c2cc(OC)c(OC)cc2n1` [Example 63, 7-((1H-Imidazol-1-yl)methyl)-2-(2-ethyl-6,7-dimethoxyquinazolin-4-yl)-5-(1-methyl-3-(trifluoromethyl)-1H-pyrazol-4-yl)-3,4-dihydroisoquinolin-1(2H)-one], the Ki in assay [1] is under 0.02 nM. In assay [2], the GI50 was under 20 nM.
As to `COc1cc2nc(C3CC3)nc(N3CCc4c(cc(Cn5ccnc5)cc4-c4cn(C)nc4C(F)(F)F)C3=O)c2cc1OC` [Example 64, 7-((1H-Imidazol-1-yl)methyl)-2-(2-cyclopropyl-6,7-dimethoxyquinazolin-4-yl)-5-(1-methyl-3-(trifluoromethyl)-1H-pyrazol-4-yl)-3,4-dihydroisoquinolin-1(2H)-one], the Ki in assay [1] was under 0.02 nM. Further, the GI50 in assay [2] was under 20 nM.
As to `COc1cc2nc(C)nc(N3CCc4c(cc(Cn5ccnc5)cc4-c4cn(C)nc4C)C3=O)c2cc1OC` [Example 65, 7-((1H-Imidazol-1-yl)methyl)-2-(6,7-dimethoxy-2-methylquinazolin-4-yl)-5-(1,3-dimethyl-1H-pyrazol-4-yl)-3,4-dihydroisoquinolin-1(2H)-one], the Ki in assay [1] worked out at 0.023 nM. The GI50 in assay [2] was 43 nM.
`COc1cc2nc(C)nc(N3CCc4c(cc(Cn5ccnc5)cc4-c4ccc(F)cc4C)C3=O)c2cc1OC` [Example 66, 7-((1H-Imidazol-1-yl)methyl)-2-(6,7-dimethoxy-2-methylquinazolin-4-yl)-5-(4-fluoro-2-methylphenyl)-3,4-dihydroisoquinolin-1(2H)-one]: the inhibition constant (Ki) in assay [1] turned out to be 0.02 nM. The GI50 in assay [2] was 38 nM.
In the same order, the values of `COc1cc2nc(C3CCOCC3)nc(N3CCc4c(cc(Cn5ccnc5)cc4-c4cn(C)nc4C(F)(F)F)C3=O)c2cc1OC` [Example 67, 7-((1H-Imidazol-1-yl)methyl)-2-(6,7-dimethoxy-2-(tetrahydro-2H-pyran-4-yl)quinazolin-4-yl)-5-(1-methyl-3-(trifluoromethyl)-1H-pyrazol-4-yl)-3,4-dihydroisoquinolin-1(2H)-one] are 0.025 nM and under 20 nM.
